From a melting point compilation (Tetko et al.; mined from patent text by program, amines drawn as free bases though some values may be those of a salt)

Compound | melting point [°C]
CCN(CC)C(=O)c1c(OC)cccc1S(N)(=O)=O | 190 to 194
ClCOc1nc(Cl)c(Cl)cc1Cl | 94 to 96
CN(C)C(=O)/C=C/CSc1nc(N)cc(Cl)n1 | 173 to 176
O=C1Nc2ncccc2N2CCNCC12 (centres undefined) | 315 to 319
O=C1CNCc2[nH]c3ccccc3c21 | 220 to 233
CC(c1ccccn1)C(O)(Cn1cncn1)c1ccc(F)cc1F (centres undefined) | 146 to 148
COc1ccc(-c2cc(C(C)(C)CC(C)(C)C)cc(-n3nc4ccc(C(F)(F)F)cc4n3)c2O)cc1 | 99 to 102
COc1ccc2cc(-c3noc(C)n3)c(=O)oc2c1 | 218 to 220
CN1C(=O)N2C(=NC1(C)C)N(C(=O)Nc1ccc(Cl)cc1)c1ccccc12 | 206 to 211
O=C(O)c1ccc2c(c1)Sc1ccccc1C=C2 | 251 to 254
CCOC(=O)CN1CCC(CNc2ccc(Cl)cc2C(=O)Nc2ccc(Cl)cn2)CC1 | 61 to 63
COc1cc2nc(C)[nH]c(=O)c2cc1OCCCN1CCOCC1 | 236 to 238
COC(=O)c1cc(C(=O)c2ncc3ccccn23)ccc1[N+](=O)[O-] | 151
COCCNc1ccc(N2CCOC2=O)cc1[N+](=O)[O-] | 148
CC(=O)C1C(C(=O)c2ccc(Br)cc2)CC2C3CCC4=CC(=O)C=CC4(C)C3(F)C(O)CC21C (centres undefined) | 285 to 286
COCCc1nc2c(N)nc3cc(Br)cnc3c2n1CC(C)(C)O | 210 to 211
O=c1n(CCO)c2cc(Br)c(Br)c(Br)c2n1CCO | 201 to 204
CCCOC(=O)c1sccc1S(N)(=O)=O | 79
O=C(NCCO)c1csc(C(F)(F)F)n1 | 100 to 101
O=C(O)CN1Cc2ccccc2CC(NC(=O)OCC2c3ccccc3-c3ccccc32)C1=O (centres undefined) | 117 to 120
CC(C)(C)c1cc(C(C)(C)C)c2oc(N)c(-c3ccccc3)c2c1 | 174 to 178
O=C(OCc1snc(Cl)c1Cl)c1ccccc1 | 79 to 80
Cc1c(C(=O)O)ccc(S(C)(=O)=O)c1N | 197 to 198
CC(Cn1c2ccccc2c2ccccc21)OS(C)(=O)=O (centres undefined) | 125 to 127
COc1ccc(S(=O)(=O)Nc2cccnc2Nc2ccccc2OC)cc1 | 159 to 160
COc1ccnc(C(=O)N[C@H]2COC[C@H](OCc3ccccc3)[C@@H](OCc3ccccc3)[C@H](C)OC2=O)c1O | 144 to 146

Compound | melting point [°C]
Cc1ccc(C(C)(C)C)cc1S(=O)(=O)Cl | 137 to 138
N=C(NO)c1ccc2nc(N[C@@H]3CCc4ccccc43)ccc2c1 | 236
COC(=O)C1=C(N)C(C)SC1 (centres undefined) | 60
COc1ccc2c(c1)c(N1CCN(C#N)CC1)nn2S(=O)(=O)c1ccccc1 | 171 to 173
CC(=O)NC(=S)NCC1CC2c3cccc4[nH]cc(c34)CC2N(C)C1 (centres undefined) | 204 to 205
CN(C)CCCOc1ccc(Nc2nccc(-c3cccnc3)n2)cc1 | 85 to 87
COc1ccc(C(=O)Oc2ccc(COc3ccc4c(c3)CCC(CN(C)C)C4)cc2)cc1 (centres undefined) | 119 to 121
Fc1ccc(-c2nc3ccccn3c2-c2ccnc(-c3ccc(CN4CCOCC4)cc3)c2)cc1Cl | 189
Nc1ncnc2c1ncn2Cc1nc2cccc(Cl)c2c(=O)n1-c1ccccc1-c1ccccc1 | 300
CC(=N)NS(=O)(=O)C=Cc1ccccc1[N+](=O)[O-] | 175 to 178
COc1cc(C(F)(F)F)cnc1O | 115 to 117
CCCCCCCCCCCCNC(=O)c1ccccc1N | 73 to 75
CS(=O)c1ccc(CSc2nnc(-c3ccc4[nH]ncc4c3)o2)cc1C(F)(F)F (centres undefined) | 170 to 171
O=C(Cc1ccccc1)NC(SC(=O)c1ccccc1)C(=O)O (centres undefined) | 133 to 138
O=C1NC(=O)C(CCCCCc2ccc(O)cc2)O1 (centres undefined) | 96 to 97
CCC(COC)(OC)c1cccc(OCOC)c1 (centres undefined) | 74 to 75
O=c1c(-c2ccc(NS(=O)(=O)c3ccccc3)cc2)coc2cc(O)c(O)cc12 | 285 to 286
CC(C)Oc1cccc2c1O[C@@H](COS(C)(=O)=O)CC2 | 77 to 78
CC1(C)Cc2nsc(=Nc3c(F)cc(Cl)c4nc(Cl)sc34)n2C1 | 134 to 136
OC(CC1CCNCC1)c1cc(-c2ccccc2)nc2ccccc12 (centres undefined) | 147
Cc1ccc2ccccc2c1C(=O)/C=C/c1ncn(C(c2ccccc2)(c2ccccc2)c2ccccc2)c1C | 222 to 224
O=C(Nc1cc(C(F)(F)F)ccc1Cl)Nc1cc(Cl)cc(Br)c1O | 261 to 274
Cc1ccc2c(=O)n(C3CCC(=O)NC3=O)cnc2c1 (centres undefined) | 313 to 315
CN1CCCC(CC(C#N)(Cn2cncn2)c2ccc(Cl)cc2Cl)C1 (centres undefined) | 125 to 126
O=C(O)c1cn2c3c(cc(Cl)cc3c1=O)C(O)CC2 (centres undefined) | > 250
O=C(O)c1cccc(-c2cccc(OCCc3ccc(Cl)cc3Cl)n2)c1 | 199 to 200

Compound | melting point [°C]
O=C1Nc2cccnc2N(C(=O)N2CCCCC2CCCCN2CCCCC2)c2ccccc21 (centres undefined) | 199 to 201
COc1ccc(-c2[nH]nc3c2C(=O)c2c(NC(=O)Nc4ccncc4)cccc2-3)cc1 | > 300
Cc1cccc(N2CCN(c3ccnc4sc(C(N)=O)c(N)c34)CC2C)c1 (centres undefined) | 215 to 217
CCCO[C@@H](Cc1ccc(OCCc2nc(-c3ccc(-c4ccccc4)cc3)oc2C)c2ccccc12)C(=O)O | 151 to 154
CCOC(=O)Nc1ccc(OC)c(OC)c1C1OCCO1 | 95 to 96
CC(=O)Nc1nc(NC(C)=O)nc(-c2ccc(-c3ccccc3)cc2)n1 | > 260
COCCc1nc2c(N)nc3ccccc3c2n1CCCNC(=O)c1cc2ccccc2cn1 | 198
COC(=O)C1(C)CN(C(=S)Nc2ccc(Cl)cc2)N=C1c1ccc(Cl)cc1 (centres undefined) | 69 to 78
CC(Oc1ncc(F)c(N)n1)c1ccc(F)cc1 (centres undefined) | 96 to 98
O=C(Nc1ccc(F)nc1)OCC(Cl)(Cl)Cl | 114 to 115
CCN(CC)C(=O)Nc1cccc(Cl)c1 | 81 to 82
CCOC(=O)C(C)(Sc1cc2ccccc2[nH]1)c1ccccc1 (centres undefined) | 97 to 99
C=CCc1c(C(=O)OCC)nc2ccccc2c1O | 146 to 147
O=C(O)CCCC1(c2ccc(F)cc2)OCCO1 | 65 to 67
O=C(O)C1C(C=C(Cl)Cl)C12CCCC2 (centres undefined) | 90 to 105
COc1cc(C(=O)O)ccc1Cc1csc2ccc(NC(=O)OC3CCCC3)cc12 | 259 to 261
COC(=O)C1=CC(C(=O)c2cc(Br)cc(Br)c2O)=CN2CCc3c([nH]c4ccccc34)C12C(=O)OC (centres undefined) | 131
O=C(/C=C/c1ccn(S(=O)(=O)c2ccc(CN3CCOCC3)cc2)c1)NO | 168 to 170
CC(C)(C)c1cc(C(c2ccc(F)cc2)N2CCCCC2)c(O)c(C(C)(C)C)c1 (centres undefined) | 135 to 136
O=C(O)CCCCCSc1ccc(O)cc1 | 92 to 94
N#Cc1ccc(F)cc1-c1cc(-c2cnc3nc(C(F)(F)F)cnn23)ccc1F | 200 to 201
CCCCCCCCC(=O)NCCc1ccc(O)cc1 | 65.9 to 66.7
CC(C)(C)c1ccc([Si](C)(C)COc2cc(C(C)(C)C)c(O)c(C(C)(C)C)c2)cc1 | 114 to 115
COC(=O)N1CC=C(c2ccc(N3C[C@H](CNC(C)=O)OC3=O)cc2)CC1 | 142 to 145
NS(=O)(=O)c1ccc(C(=O)NCc2ccccc2)s1 | 203
Clc1ccc2c(c1)N=C(c1ccncc1)c1ccccc1O2 | 122

Compound | melting point [°C]
Nc1cc(Oc2ccc(-c3ccc(Oc4cc(N)cc(C(F)(F)F)c4)cc3)cc2)cc(C(F)(F)F)c1 | 130 to 133
CN(NCc1ccccc1)c1cnn(-c2cccc(C(F)(F)F)c2)c(=O)c1 | 89 to 90
CCC(=O)NC(=O)C(CC)(OC(=O)CC)C(=O)NC(=O)CC | 90
COc1cc2c(c3c1OC(C)(C)C3)C(C)=NC(C)(C)C2 | 112 to 113
C=CCOC(=O)c1ccc(-c2nn(-c3ccc(C(=O)ON4C(=O)CCC4=O)cc3)c3ccccc23)cc1 | 178
Cn1c(N2CCOC(c3noc(-c4ccccc4)n3)C2)nc(-c2ccncn2)cc1=O (centres undefined) | 208
O=C1c2ccc(Sc3ccc4c(c3)C(=O)N(c3ccccc3)C4=O)cc2C(=O)N1c1ccccc1 | 275 to 280
Cc1c(-c2cnccn2)c(N2CC[C@H](N(C)C)C2)c2oc(C3CC3)nc2c1C#N | 157 to 159
OCC1=Cc2cc3ccccc3n2CC1 | 139 to 142
O=C(O)CC(CC(=O)O)Cc1ccc(O)cc1 | 117 to 119
CCc1cc(CC(=O)O)ccc1OCc1ccc2ccccc2n1 | 144
CC(=O)N(O)Cc1cccc(C#Cc2ccccc2)c1 | 91 to 93
NC(=NO)c1ccncc1 | 203 to 205
Cc1sc(C2=NOC(c3cc(Cl)cc(Cl)c3)(C(F)(F)F)C2)cc1Br (centres undefined) | 110 to 112
O=C(CCCO)N1CCCCC1 | 31 to 33
Cc1cc(COc2nn3c(-c4ccccc4F)nncc3c2-c2ccccc2F)nn1C | 183
COc1cc(C(C)=O)cc(OC)c1OCCCC(=O)O | 122 to 124
O=c1c2ccc(OCCN3CCCCC3)cc2oc2cc(OCCN3CCCCC3)ccc12 | 134
CS(=O)(=O)Nn1c(=O)[nH]c2cc([N+](=O)[O-])c(NC3CCCC3)cc2c1=O | 146 to 155
O=c1[nH]c2ccc(F)cc2n2ccnc12 | > 300
Cc1nn(-c2cccc(N)c2)c2c1C(=O)CC(C)(C)C2 | 131 to 132
O=C(O)CO[C@@H]1CCCC[C@H]1NC(=O)Nc1ccccc1 (relative stereo) | 166 to 168
NC(=O)CCC1CCC(=O)N1 (centres undefined) | 178
CCCc1cn2c(=O)c(C(=O)OCC)cnc2c2cc(OC)ccc12 | 187 to 188
Fc1ccc(-c2n[nH]cc2-c2ccnc(NC3CC3)n2)cc1 | 203 to 204
CCCn1c(=O)n(C)c(=O)c2nc(-c3ccc(/C=C/C(=O)O)cc3)[nH]c21 | > 300
